Experimental data: patent US12103919B2, “3-(5-oxy)-1-oxoisoindolin-2-yl)piperidine-2,6-dione derivatives and uses thereof” (NOVARTIS AG, priority 2021, dated 2024)
Read-outs that look alike come from different tables or passages of the source.

Molecular target: T1, WIZ (Homo sapiens, UniProt O95785+Q96SW2)
T1 construct: expressed in transfected cells
Experiment: Quantification of WIZ protein levels in HiBit tag fusion protein assay (293T cells)
Assay type: cell-based
Set-up: Dmax: dose or concentration left out as unconfirmed
Experimental: The HiBit system from Promega was used to develop high-throughput and quantitative assays to measure changes in WIZ protein levels in response to compounds. The HiBit tag was derived from a split Nanoluciferase and has the following protein sequence: […] (SEQ ID NO: 1). The complementary fragment of Nanoluciferase (known as LgBit, from Promega), was added to the HiBit tag to form an active Nanoluciferase enzyme whose activity can be precisely measured. In this way, the levels of a fusion protein with the HiBit tag can be quantified in cell lysates.
Lentiviral vectors, based on the Invitrogen™ pLenti6.2/V5 DEST backbone were constructed that places the HiBit tag upstream of WIZ and expressed the fusion protein from an HSVTK promotor.
To ensure moderate and consistent expression of the HiBit-WIZ fusion protein across all cells in the population, stable cell lines were constructed from cells harboring a single copy of the construct. Lentivirus packaged with the constructs were made using the ViraPowerTMkit from Invitrogen™. 293T cells from ATCC (Catalog number: CRL-3216), were infected with the virus at low multiplicity of infection and selected by 5 μg/mL blasticidin in culture media for 2 weeks.
The levels of HiBit-WIZ tagged fusion proteins in compound-treated cell lines were measured as follows:
On day 1, cells were diluted to 1.0×10^6 cells/ml in normal growth medium. 20 μL of cell suspension were plated in each well of a solid white 384-well plate. Plates were incubated overnight in a 37° C. and 5% CO2 humidified tissue culture incubator.
On day 2, serial dilutions of compounds were made in 384-well plates. Compound plates were set up with DMSO in columns 1, 2, 23, 24, and 10-point compound dilution series in column 3-12 and column 13-22. 10 mM stock solution of compound were placed into column 3 or 13 and a 1:5 serial dilution was carried out until there was a 10-point dilution series per compound. 50 nL of diluted compounds were transferred into the plated cells by Echo® (Labcyte) acoustic transfer. The highest concentration of compound was 25 μM. Plates were incubated overnight (about 18 hours) in a 37° C. and 5% CO2 humidified tissue culture incubator.
On day 3, plates were removed from the incubator and allowed to equilibrate at room temperature for 60 minutes. HiBit substrate (Nano-Glo® HiBit Lytic Detection System, Promega Catalogue number: N3050) was added as described by the manufacturers protocols. Plates were incubated at room temperature for 30 minutes and luminescence was read using an EnVision® reader (PerkinElmer®). Data was analyzed and visualized using the Spotfire® software package.
WIZ Amax reflects the DMSO-normalized, curve-fitted percentage of WIZ-HiBit remaining at 25 uM. It was calculated by normalizing DMSO controls to 100%, parametric curve fitting of the dose response data (10-point, 5-fold), followed by calculation of response at 25 uM using the fitted equation.

[1] = HEK-293T; DMSO-normalized, curve-fitted percentage of WIZ-HiBit remaining at 25 uM; read-out: WIZ Amax
[2] = HEK-293T; at 25 uM, 100 − Amax; read-out: % degradation of WIZ (100 − Amax)
[3] = WIZ HiBit assay in 293T cells, about 18 hours, 10-point 5-fold dilution, top 25 μM; read-out: WIZ AC50
[4] = DMSO-normalized, curve-fitted percentage of WIZ-HiBit remaining at 25 uM
[5] = HEK-293T, read-out: % degradation of WIZ (100 − Amax)
[6] = read-out: WIZ AC50; WIZ HiBit assay in 293T cells, about 18 hours, 10-point 5-fold dilution, top 25 μM

T1 sequence (O95785 whole entry): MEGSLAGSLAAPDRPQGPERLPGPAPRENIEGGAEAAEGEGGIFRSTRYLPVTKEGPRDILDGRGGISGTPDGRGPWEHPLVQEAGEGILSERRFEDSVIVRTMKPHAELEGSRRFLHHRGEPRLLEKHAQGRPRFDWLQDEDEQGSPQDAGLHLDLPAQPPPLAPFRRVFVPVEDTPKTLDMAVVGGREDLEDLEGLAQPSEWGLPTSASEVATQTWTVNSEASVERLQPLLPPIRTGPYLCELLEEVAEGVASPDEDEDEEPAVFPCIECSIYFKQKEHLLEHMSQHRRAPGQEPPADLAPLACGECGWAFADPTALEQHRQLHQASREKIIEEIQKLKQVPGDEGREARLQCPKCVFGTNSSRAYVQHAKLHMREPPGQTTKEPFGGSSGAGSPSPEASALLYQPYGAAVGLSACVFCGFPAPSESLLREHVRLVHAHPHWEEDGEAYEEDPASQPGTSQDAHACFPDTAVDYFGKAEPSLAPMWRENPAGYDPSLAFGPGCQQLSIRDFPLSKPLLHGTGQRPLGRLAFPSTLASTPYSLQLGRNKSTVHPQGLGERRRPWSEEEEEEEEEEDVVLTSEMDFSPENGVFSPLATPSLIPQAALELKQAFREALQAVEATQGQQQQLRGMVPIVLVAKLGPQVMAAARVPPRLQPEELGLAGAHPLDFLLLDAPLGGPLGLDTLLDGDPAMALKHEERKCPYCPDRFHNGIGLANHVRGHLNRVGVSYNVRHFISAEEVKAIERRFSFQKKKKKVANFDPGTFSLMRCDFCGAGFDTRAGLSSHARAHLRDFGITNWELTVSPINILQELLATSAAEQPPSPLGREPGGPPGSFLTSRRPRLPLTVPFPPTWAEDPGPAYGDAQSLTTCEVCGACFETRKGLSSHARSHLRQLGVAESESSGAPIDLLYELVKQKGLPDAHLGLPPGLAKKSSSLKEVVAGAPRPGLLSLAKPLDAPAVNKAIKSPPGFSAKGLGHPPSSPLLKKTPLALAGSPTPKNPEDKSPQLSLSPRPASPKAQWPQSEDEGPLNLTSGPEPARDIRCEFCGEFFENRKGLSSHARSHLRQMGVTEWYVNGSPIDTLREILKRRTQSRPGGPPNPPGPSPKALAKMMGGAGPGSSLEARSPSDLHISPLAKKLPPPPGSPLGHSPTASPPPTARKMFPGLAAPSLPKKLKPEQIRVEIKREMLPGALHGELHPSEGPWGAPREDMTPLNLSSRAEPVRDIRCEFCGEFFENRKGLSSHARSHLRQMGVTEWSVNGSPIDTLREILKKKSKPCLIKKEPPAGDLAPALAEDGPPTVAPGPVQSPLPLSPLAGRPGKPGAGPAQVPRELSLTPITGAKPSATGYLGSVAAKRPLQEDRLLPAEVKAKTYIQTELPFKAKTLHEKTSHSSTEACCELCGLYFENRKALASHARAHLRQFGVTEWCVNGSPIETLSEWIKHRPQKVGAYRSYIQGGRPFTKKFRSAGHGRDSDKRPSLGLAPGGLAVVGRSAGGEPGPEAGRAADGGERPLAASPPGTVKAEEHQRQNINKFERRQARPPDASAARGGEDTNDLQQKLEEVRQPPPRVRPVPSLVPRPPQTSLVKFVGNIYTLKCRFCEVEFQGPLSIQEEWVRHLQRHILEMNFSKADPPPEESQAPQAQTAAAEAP
T1 sequence (Q96SW2 whole entry): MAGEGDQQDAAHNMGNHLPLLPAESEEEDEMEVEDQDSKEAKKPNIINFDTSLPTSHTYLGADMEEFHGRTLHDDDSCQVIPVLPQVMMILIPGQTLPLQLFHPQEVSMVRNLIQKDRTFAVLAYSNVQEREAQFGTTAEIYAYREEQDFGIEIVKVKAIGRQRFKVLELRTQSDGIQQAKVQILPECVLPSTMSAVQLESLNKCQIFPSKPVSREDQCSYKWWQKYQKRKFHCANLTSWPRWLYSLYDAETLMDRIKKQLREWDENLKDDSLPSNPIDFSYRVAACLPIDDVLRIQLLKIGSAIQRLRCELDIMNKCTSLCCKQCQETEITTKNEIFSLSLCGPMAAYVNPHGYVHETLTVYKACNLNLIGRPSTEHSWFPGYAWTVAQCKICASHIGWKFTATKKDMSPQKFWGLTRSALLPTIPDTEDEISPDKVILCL
T1 sequence (Q16531 whole entry partner): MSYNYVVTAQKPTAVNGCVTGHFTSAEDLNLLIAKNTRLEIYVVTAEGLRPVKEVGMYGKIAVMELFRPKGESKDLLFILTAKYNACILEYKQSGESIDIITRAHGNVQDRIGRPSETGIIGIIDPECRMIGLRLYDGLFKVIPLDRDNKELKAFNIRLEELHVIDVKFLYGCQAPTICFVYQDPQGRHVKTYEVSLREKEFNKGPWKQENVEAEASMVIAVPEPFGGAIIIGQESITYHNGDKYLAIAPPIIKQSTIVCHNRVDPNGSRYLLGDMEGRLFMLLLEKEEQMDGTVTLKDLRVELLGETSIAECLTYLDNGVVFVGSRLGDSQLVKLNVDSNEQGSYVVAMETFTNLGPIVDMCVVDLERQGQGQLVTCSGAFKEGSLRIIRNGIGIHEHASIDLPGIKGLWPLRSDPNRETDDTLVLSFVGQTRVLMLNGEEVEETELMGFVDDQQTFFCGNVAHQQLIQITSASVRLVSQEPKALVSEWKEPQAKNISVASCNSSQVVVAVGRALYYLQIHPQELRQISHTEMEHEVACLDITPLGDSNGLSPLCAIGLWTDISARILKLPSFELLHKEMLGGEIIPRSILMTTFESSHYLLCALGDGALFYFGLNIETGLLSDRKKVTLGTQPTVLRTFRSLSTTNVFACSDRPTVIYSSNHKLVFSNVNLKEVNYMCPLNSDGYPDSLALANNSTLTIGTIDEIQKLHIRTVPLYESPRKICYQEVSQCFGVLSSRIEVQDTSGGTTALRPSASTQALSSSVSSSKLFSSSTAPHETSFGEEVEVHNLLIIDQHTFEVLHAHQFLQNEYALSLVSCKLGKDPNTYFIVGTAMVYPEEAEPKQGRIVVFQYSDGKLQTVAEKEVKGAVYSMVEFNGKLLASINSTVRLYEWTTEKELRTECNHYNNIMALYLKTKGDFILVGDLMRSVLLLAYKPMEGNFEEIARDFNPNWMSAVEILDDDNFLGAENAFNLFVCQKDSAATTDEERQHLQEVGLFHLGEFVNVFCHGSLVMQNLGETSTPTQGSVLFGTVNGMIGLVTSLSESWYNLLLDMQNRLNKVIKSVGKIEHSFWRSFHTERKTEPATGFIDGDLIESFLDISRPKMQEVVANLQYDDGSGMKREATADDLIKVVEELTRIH

Row | SMILES | remaining activity at 25 µM [1] [%] | Dmax at 25 µM [2] [%] | DC50 [3] [nM] | other results
1 | CCN1CCC(C)(C)C(Oc2ccc3c(c2)CN(C2CCC(=O)NC2=O)C3=O)C1 (single isomer, unassigned) [Example 49, 3-(5-((1-ethyl-4,4-dimethylpiperidin-3-yl)oxy)-1-oxoisoindolin-2-yl)piperidine-2,6-dione] | 91.4 | 8.63 | 83 | 
2 | CCN1C[C@H](OC)C[C@@H](Oc2ccc3c(c2)CN(C2CCC(=O)NC2=O)C3=O)C1 (single isomer, unassigned) [Example 65-1] | 18.1 | 81.9 | 1.4 | 
3 | CCN1C[C@H](OC)C[C@@H](Oc2ccc3c(c2)CN(C2CCC(=O)NC2=O)C3=O)C1 (single isomer, unassigned) [Example 65-2] |  |  | 1.2 | WIZ Amax [4]: 19.67%; % degradation of WIZ (100 − Amax) (at 25 uM, 100 − Amax): 80.33%
4 | CCN1C[C@H](C)C[C@@H](Oc2ccc3c(c2)CN(C2CCC(=O)NC2=O)C3=O)C1 (single isomer, unassigned) [Example 76-1] | 13.8 | 86.2 | 1.6 | 
5 | CCN1C[C@H](C)C[C@@H](Oc2ccc3c(c2)CN(C2CCC(=O)NC2=O)C3=O)C1 (single isomer, unassigned) [Example 76-2] |  |  | 0.6 | WIZ Amax [4]: 12.82%; % degradation of WIZ (100 − Amax) (at 25 uM, 100 − Amax): 87.18%
6 | CCN1CCC[C@H](Oc2ccc3c(c2)CN(C2CCC(=O)NC2=O)C3=O)C1 (stereo partly drawn) [Example 2, 3-(5-(((S)-1-ethylpiperidin-3-yl)oxy)-1-oxoisoindolin-2-yl)piperidine-2,6-dione] |  |  | 360 | Dmax [5]: 11.1%; remaining activity at 25 µM (HEK-293T, read-out: WIZ Amax): 88.9%
7 | O=C1CCC(N2Cc3cc(O[C@@H]4CCCN(CC5CCC(F)(F)CC5)C4)ccc3C2=O)C(=O)N1 (stereo partly drawn) [Example 5, 3-(5-(((R)-1-((4,4-difluorocyclohexyl)methyl)piperidin-3-yl)oxy)-1-oxoisoindolin-2-yl)piperidine-2,6-dione] | 77.3 | 22.7 | 55 | 
8 | O=C1CCC(N2Cc3cc(O[C@@H]4CCCN(CC5CCCCC5)C4)ccc3C2=O)C(=O)N1 (stereo partly drawn) [Example 6, 3-(5-(((R)-1-(cyclohexylmethyl)piperidin-3-yl)oxy)-1-oxoisoindolin-2-yl)piperidine-2,6-dione] | 86.7 | 13.3 | 31 | 
9 | O=C1CCC(N2Cc3cc(O[C@@H]4CCCN(C5CCOCC5)C4)ccc3C2=O)C(=O)N1 (stereo partly drawn) [Example 10, 3-(1-oxo-5-(((R)-1-(tetrahydro-2H-pyran-4-yl)piperidin-3-yl)oxy)isoindolin-2-yl)piperidine-2,6-dione] | 45.5 | 54.5 | 33 | 
10 | O=C1CCC(N2Cc3cc(O[C@@H]4CCCN(C5CC6(COC6)C5)C4)ccc3C2=O)C(=O)N1 (stereo partly drawn) [Example 11, 3-(5-(((R)-1-(2-oxaspiro[3.3]heptan-6-yl)piperidin-3-yl)oxy)-1-oxoisoindolin-2-yl)piperidine-2,6-dione] | 56.4 | 43.6 | 110 | 
11 | CCn1cc(CN2CCC[C@@H](Oc3ccc4c(c3)CN(C3CCC(=O)NC3=O)C4=O)C2)cn1 (stereo partly drawn) [Example 14, 3-(5-(((R)-1-((1-ethyl-1H-pyrazol-4-yl)methyl)piperidin-3-yl)oxy)-1-oxoisoindolin-2-yl)piperidine-2,6-dione] |  |  |  | Dmax [5]: 59.3%; remaining activity at 25 µM (HEK-293T, read-out: WIZ Amax): 40.7%; DC50 [6]: 57 nM
12 | CCN1CCC2(CC2)[C@@H](Oc2ccc3c(c2)CN(C2CCC(=O)NC2=O)C3=O)C1 (stereo partly drawn) [Example 15, 3-(5-(((R)-6-ethyl-6-azaspiro[2.5]octan-4-yl)oxy)-1-oxoisoindolin-2-yl)piperidine-2,6-dione] |  |  | 8.4 | Dmax [5]: 80%; remaining activity at 25 µM (HEK-293T, read-out: WIZ Amax): 20%
13 | CCN1C[C@H](Oc2ccc3c(c2)CN(C2CCC(=O)NC2=O)C3=O)CC[C@H]1C (stereo partly drawn) [Example 23, 3-(5-(((3R,6R)-1-ethyl-6-methylpiperidin-3-yl)oxy)-1-oxoisoindolin-2-yl)piperidine-2,6-dione] |  |  |  | Dmax [5]: 57.7%; remaining activity at 25 µM (HEK-293T, read-out: WIZ Amax): 42.3%; DC50 [6]: 30 nM

Second part, led by results:

Row | remaining activity at 25 µM [1] [%] | Dmax at 25 µM [2] [%] | DC50 [3] [nM] | SMILES | other results
14 | 97.6 |  | > 25000 | CC[C@H](C)N1CCC(C)(C)C(Oc2ccc3c(c2)CN(C2CCC(=O)NC2=O)C3=O)C1 (single isomer, unassigned) [Example 50] | % degradation of WIZ (100 − Amax) (at 25 uM, 100 − Amax): 2.38%
15 |  |  | 200 | CC[C@H](C)N1CCC(C)(C)C(Oc2ccc3c(c2)CN(C2CCC(=O)NC2=O)C3=O)C1 (single isomer, unassigned) [Example 51] | WIZ Amax [4]: 87.19%; % degradation of WIZ (100 − Amax) (at 25 uM, 100 − Amax): 12.81%
16 | 26.8 | 73.2 | 2 | CC(C)CN1CCC[C@@H](Oc2ccc3c(c2)CN(C2CCC(=O)NC2=O)C3=O)C1 (stereo partly drawn) [Example 3, 3-(5-(((R)-1-isobutylpiperidin-3-yl)oxy)-1-oxoisoindolin-2-yl)piperidine-2,6-dione] | 
17 | 64.4 | 35.6 | 110 | O=C1CCC(N2Cc3cc(O[C@@H]4CCCN(CC5COC5)C4)ccc3C2=O)C(=O)N1 (stereo partly drawn) [Example 4, 3-(5-(((R)-1-(oxetan-3-ylmethyl)piperidin-3-yl)oxy)-1-oxoisoindolin-2-yl)piperidine-2,6-dione] | 
18 | 38.9 | 61.1 | 1.1 | O=C1CCC(N2Cc3cc(O[C@@H]4CCCN(CC5CCC5)C4)ccc3C2=O)C(=O)N1 (stereo partly drawn) [Example 7, 3-(5-(((R)-1-(cyclobutylmethyl)piperidin-3-yl)oxy)-1-oxoisoindolin-2-yl)piperidine-2,6-dione] | 
19 | 33 | 67 | 28 | CCCN1CCC[C@@H](Oc2ccc3c(c2)CN(C2CCC(=O)NC2=O)C3=O)C1 (stereo partly drawn) [Example 8, 3-(1-oxo-5-(((R)-1-propylpiperidin-3-yl)oxy)isoindolin-2-yl)piperidine-2,6-dione] | 
20 |  |  | 4.2 | CC(C)N1CCC[C@@H](Oc2ccc3c(c2)CN(C2CCC(=O)NC2=O)C3=O)C1 (stereo partly drawn) [Example 9, 3-(5-(((R)-1-isopropylpiperidin-3-yl)oxy)-1-oxoisoindolin-2-yl)piperidine-2,6-dione] | Dmax (HEK-293T, read-out: % degradation of WIZ (100 − Amax), 100 − Amax): 71.5%; remaining activity at 25 µM (HEK-293T, read-out: WIZ Amax, DMSO-normalized, curve-fitted percentage of WIZ-HiBit remaining at 25 uM): 28.5%
21 | 68.5 | 31.5 | 130 | O=C1CCC(N2Cc3cc(O[C@@H]4CCCN(C5COC5)C4)ccc3C2=O)C(=O)N1 (stereo partly drawn) [Example 12, 3-(5-(((R)-1-(oxetan-3-yl)piperidin-3-yl)oxy)-1-oxoisoindolin-2-yl)piperidine-2,6-dione] | 
22 | 40.9 | 59.1 | 2.5 | CC(C)CN1CCC2(CC2)[C@@H](Oc2ccc3c(c2)CN(C2CCC(=O)NC2=O)C3=O)C1 (stereo partly drawn) [Example 16, 3-(5-(((R)-6-isobutyl-6-azaspiro[2.5]octan-4-yl)oxy)-1-oxoisoindolin-2-yl)piperidine-2,6-dione] | 
23 | 27.8 | 72.2 | 14 | CC[C@H](C)N1CCC2(CC2)[C@@H](Oc2ccc3c(c2)CN(C2CCC(=O)NC2=O)C3=O)C1 (stereo partly drawn) [Example 17, 3-(5-(((R)-6-((S)-sec-butyl)-6-azaspiro[2.5]octan-4-yl)oxy)-1-oxoisoindolin-2-yl)piperidine-2,6-dione] | 
